Measured values as given in patent US20020133832A1, “Model systems for neuordegenerative and cardiovascular disorders” (priority 2000, published 2002).
Entries after “also recorded” stand apart in the source; their conditions may differ.

Assays:
Type in all cases: in vivo, mouse
S1+/− and T1+/− mice = experiment: Rescue of reduced rearing behavior (rearings/min) in the open field; conditions: terazosin target dose 0.05 mg/kg body weight/day via drinking water, four weeks, L-DOPA as Sinemet
Description: FIG. 6. An Active Open Field Activity System (Harvard Apparatus, Holliston, Mass.) was used to monitor total activity, distance traveled/min and number of rearings/min in age matched NT (▴), W2+/−(▪), S1+/−(●) and T1+/−(▾) and T2+/−(♦) mice. The open field for these experiments was a 16 inch by 16 inch enclosure with infrared beams of light aimed to form grids near the floor and 3 inches above the floor of the enclosure. (A) Total activity, or the total number of beam breaks each minute, was determined in two month old mice for a total time of 15 min. (B) A computer algorithm was used to calculate the distance traveled/min during horizontal ambulation by mice of varying age. (C) The number of rearings/minute was determined by electronically tallying the number of times mice of varying age reared onto their hindlimbs, facilitating a greater than 1 sec beam break in the upper grid (3 inches above the floor of the enclosure). (D) Snapshot of an 11 month old S1+/− mouse showing elongation of the torso caused by sprawling and dragging of the hindlimbs. (E) The ability of terazosin and L-DOPA to rescue the reduced number of rearings/min seen in eighteen month old S1+/− and T1+/− mice was tested by administering a target dose of 0.05 mg terazosin/kg body weight/day via the drinking water. After a four week pretreatment with the drug, the number of rearings/min was determined. All error bars in the Figurere present SEM (n>3) and significance in D was determined using analysis of variance with a two-tailed Student's t test (p<0.05).
Receptor overactivity was inhibited in S1+/− and T1+/− mice via treatment with the α1BAR-specific antagonist terazosin. Animals were treated with the drug at a target dose of 0.05 mg/Kg of body weight/day via the drinking water. […] (FIG. 6E).

T2+/− mice [1] = experiment: Percent seizure activity induced by open field stress; conditions: T2 mice at 12 months of age, 0.05 mg/Kg body weight/day via drinking water, four weeks
Description: (§1) FIG. 7. (A) Sequence of seizure behaviors in a 12 month old T2+/− mouse. 1; behavioral arrest. 2; loss of balance and whole body jerking. 3; forelimb flexion. 4; recovery. (B) Comparison of percent seizure activity induced by open field stress in various lines of mice at 12 months of age. […] Percent seizure activity was then calculated by dividing the number of seizure-positive mice by the total number of mice tested. The total number of mice tested for each case is shown above the respective column in the graph. The ability of terazosin to rescue T2+/− mice from the seizure phenotype was tested by administering a target dose of 0.05 mg/kg body weight/day via the drinking water. After a four week pretreatment with the drug, percent seizure activity was determined. (C) Identical experiment to that described in B, except percent seizure activity was determined in lines of mice at seven months of age that were exposed to intraperitoneal injection (IPI) stress. IPI stress was administered to the mice by intraperitoneal injection of […] of sterile 0.9% NaCl.
The seizure event seen in W2+/−, S 1+/−, T1+/− and T2+/− mice at twelve months of age was evoked by exposure to the open field (i.e. handling-invoked stress) and was characterized by behavioral arrest, facial twitching, loss of balance, forelimb automatism, whole body jerking and hypersalivation. […]

T2+/− mice [2] = experiment: Percent seizure activity induced by intraperitoneal injection (IPI) stress; conditions: T2 mice at 7 months of age, 0.05 mg/Kg body weight/day via drinking water, 4 weeks, 0.05 mg/kg/day
Description: as §1
Seizures seen in response to this intraperitoneal injection stress (IPI stress) resembled the open field stress-induced event in terms of severity, characteristics and duration. […]

N[C@@H](Cc1ccc(O)c(O)c1)C(=O)O [L-DOPA]
rearing behavior (number of rearings/min) (S1+/− and T1+/− mice; eighteen month old S1+/− mice): did not improve the locomotor activity | rearing behavior (number of rearings/min) (S1+/− and T1+/− mice; eighteen month old T1+/− mice): dramatically reversed the rearing deficit

COc1cc2nc(N3CCN(C(=O)C4CCCO4)CC3)nc(N)c2cc1OC (stereo not drawn) [terazosin]
rearing behavior (number of rearings/min) (S1+/− and T1+/− mice; eighteen month old S1+/− mice): partial rescue of the rearing behavior | rearing behavior (number of rearings/min) (S1+/− and T1+/− mice; eighteen month old T1+/− mice): partial rescue of the rearing behavior | percent seizure activity (T2+/− mice [1]): partially reversible i.e., fewer events | percent seizure activity (T2+/− mice [2]): reduced the number of younger T2+/− mice displaying IPI-induced seizures; also recorded: partially reversed the phenotype
